Reference: patent US20230040597A1, “USE OF NICOLSAMIDE FORMULATIONS FOR ANTIVIRAL THERAPY” (priority 2020, published 2023)
In brackets after ≈: the same amount, converted by molar mass. Where two headings read alike, the source gives them in different places.

Key:
human sperm = test: Dose-dependent effect of niclosamide on sperm motility in fresh human semen; format: cell-based
Experimental: FIG. 1 is a graph depicting the dose dependent effect of niclosamide dissolved in DMSO, on sperm motility. Fresh human semen samples were mixed with the different concentrations of niclosamide in vitro, followed by analysis of sperm motility within 2 minutes. The x-axis depicts the different concentrations of niclosamide mixed with the semen sample. The x-axis, from Left to Right: the gray bar depicts an untreated semen sample, the blue bar depicts a vehicle control, and the eight pink bars depict the increasing concentrations of niclosamide tested. […] The y-axis depicts the percentage (%) inhibition in sperm motility of each semen sample treated with a concentration of niclosamide o normalized to the sperm motility of a control sample. Change in sperm motility relative to control treated sample is shown as mean +/−standard error of the mean (S.E.M.) for the aggregate of individual experiments.
Sperm motility is a functional measurement of the sperm themselves. Sperm may be sampled directly from semen or from washed sperm samples, and assessed for motility either manually or by CASA (Computer Assisted Sperm Analysis) (Chapter 59—Male Reproductive System. Systems Toxicologic Pathology. Dianne M. Creasy, Robert E. Chapin, in Haschek and Rousseaux's Handbook of Toxicologic Pathology (Third Edition), 2013; Amann R P et al. Computer-assisted sperm analysis (CASA): capabilities and potential developments. Theriogenology. 2014 Jan. 1; 81(1):5-17).
Sperm motility (expressed as %) may be evaluated in duplicate within 1 h of semen collection, by counting moving and nonmoving sperm in several microscopic fields. […] In preferred embodiments, only complete spermatozoa (head with tail) are included in such counts. Slow-moving sperm (class B+C) can be easily and accurately counted compared with rapidly moving (class A) sperm. A multi-button tally, preferably a digital one, is used to differentially count such motility (for additional detail, see Chapter 23: Standardized semen analysis and quality control management for multicenter male reproductive toxicology clinical trials, Sikka S. C. et al., in Bioenvironmental Issues Affecting Men's Reproductive and Sexual Health, 2018, the contents of which are incorporated herein by reference in their entirety).
After 2 minutes of incubation with the formulation, the semen samples were collected and analyzed for sperm motility. […] Data were collected within 2 minutes after mixing the formulation in gel form, with fresh semen, so the effects are instantaneous. As for timing, the gel may be applied 15-20 minutes prior to intercourse to allow gelling to fully occur. Furthermore, the gel may not be efficacious after residing in the vagina for longer than 1 hour.

[1] = format: physicochemical
Experimental: Saturation solubility of niclosamide was studied in the solvents, to know the highest concentration of niclosamide that can be solubilized, as depicted in table 6.
Heating and stirring improved solubilization of niclosamide in polyethylene glycol. […] In further formulation studies, drug substance concentration >7% w/w was desired, so 65° C. of temperature was used for solubilization of API.

[2] = Drug-excipient compatibility study (related substances of binary mixtures); format: physicochemical
Experimental: Proposed drug to excipient ratio was selected based on the function of the excipient and maximum concentration to be used. Drug and excipient binary mixtures were prepared by uniform mixing. The blends were packed in clear glass vials and the compatibility was evaluated in closed conditions. In the closed-vial study, the dry mix samples were filled in vials with screw stopper fitting covered with parafilm and stored at 40° C./75% RH, 25° C./60% RH and 2° C.-8° C. storage condition up to 4 weeks. Samples at 40° C./75% RH and 25° C./60% RH were checked for physical description and analyzed for related substances, initially, at 2 weeks and at 4 weeks. Ratio of drug substance to excipients in blend for the compatibility study, are as follows: a) niclosamide:gelling agents/mucoadhesive agents was 1:15; b) niclosamide:solvents/co-solvents was 1:5; c) niclosamide:pH adjusting agents/neutralizing agents was 1:1; and d) niclosamide: preservatives/anti-oxidants was 1:0.5. Summary of physical description and related substances analysis of binary mixtures of API & excipients at initial and 40° C./75% RH-4 weeks condition are presented below in Table 8.
The impurities detected were as follows: Impurity-1 (5-chloro salicylic acid); Impurity-2 (2-chloro-4-nitro aniline); Impurity-3 (N-(2-chloro-4-nitrophenyl)-2-hydroxybenzamide); Impurity-4 (3,5-dichloro-N-(2-chloro-4-nitrophenyl)-2-hydroxybenzamide); and Impurity-5 (3-chloro-N-(2-chloro-4-nitrophenyl)-2-hydroxybenzamide).

SARS-CoV-2 = test: microbe, parasite or virus in culture; format: cell-based; conditions: Severe acute respiratory syndrome coronavirus 2, Vero C1008; Vero E6 cells; reporter SARS-CoV-2 MOI of 0.1; luciferase at 24 h post-infection; 0.5% DMSO; read-out: antiviral EC50
physchem = conditions: 25 °C, water
[3] = Saturation solubility in buffers (shake flask method); conditions: 0.1 N HCl, 0.01 N HCl, pH 3.0 and 4.0 acid phthalate buffer, pH 4.5 and 5.1 acetate buffer
[4] = 40° C./75% RH, 4 Weeks, closed vial

With `O=C(Nc1ccc([N+](=O)[O-])cc1Cl)c1cc(Cl)ccc1O` [niclosamide] the “Minimum dose to see effect (inhibits sperm motility)” value (human sperm) was 4 mM, the “Minimum dose to see effect (inhibits sperm motility), Amount (w/w)” value (human sperm) was 0.13% and the inhibition at 10000 µM (human sperm; Sperm, 2 min, 10 mM niclosamide, fresh human semen, within 2 minutes, relative to control, read-out: percentage (%) inhibition in sperm motility) was 100%. For the same compound, the “Concentration giving complete inhibition of sperm motility” value (human sperm; semen sample vs control sample, 2 minutes incubation) was no less than 10 mM, the maximum solubility [1] was 5 % w/w and the Imp-3 [2, 4] was 0.026%. The Imp-4 [2, 4] was 0.012%, the Imp-5 [2, 4] was 0.014% and the “Single Max Unk Imp” value [2, 4] was 0.007%. For the same compound, the “Total Impurities” value [2, 4] was 0.06%, the Imp-3 ([2]; Initial) was 0.029% and the Imp-4 ([2]; Initial) was 0.009%. For the same compound, the “Single Max Unk Imp” value ([2]; Initial) was 0.010%, the “Total Impurities” value ([2]; Initial) was 0.05% and the EC50 (SARS-CoV-2) was 150 nM. For the same compound, the Solubility (pH 1.2) was “Nil”, the Solubility (pH 2) was “Nil” and the Solubility (pH 3) was “Nil”. The Solubility (pH 4) was “Nil”, the Solubility (pH 4.5) was “Nil” and the Solubility (pH 5.1) was “Nil”. The Solubility (physchem) was 5 µg/mL (≈ 15.3 µM) and the “solubility in studied buffers” value [3] was “insoluble”.
